Measurements published in patent US20200087258A1, “INHIBITOR OF CITRATE TRANSPORTER AND THEIR USE IN THERAPY” (Eternygen GmbH, priority 2017, published 2020).

How the values were obtained:
INDY [1] = target: T1, INDY (Homo sapiens, UniProt Q86YT5); test: Fatty acid synthesis (FAS) assay from 14C-citrate in HepG2 cells; type: cell-based; settings: 14C-citrate into fatty acids
Description: To test the functional activity of selected compounds and to bridge between the in vitro assay for citrate uptake to the physiological relevant lipid accumulation in liver cells a further functional cell assay was performed. This assay measured the effect of selected compounds on the citrate mediated fatty acid synthesis in hepatocytes.
Fatty acid synthesis (FAS) assay in HepG2: The principle of the assay is to measure the generation of ^14C-labelled fatty acids after uptake of ^14C labelled citrate into HepG2 cells. HepG2 cells were seeded into white clear-bottom 96-well plates (50,000/well) coated with collagen and incubated at 37° C. for 16-24 hours. After that plates were washed once with 100 μl PBS (+CaCl2+MgCl2) and 40 μl assay medium ([…] containing 11 mM glucose, 10 mM HEPES and 1 nM Insulin) per well was added. Test substances in assay medium were added ([…], 0.5% DMSO) and incubated for 20 min. After that 10 μl assay medium containing ^14C-citrate (final concentration 50 nM) and PrestoBlue reagent (1× final concentration; Life Technologies) were added and incubated for 60 min (37° C., 5% CO2). Cell viability was measured (Safire microplate reader, ex: 560/em: 590) and plates were incubated for another 30 min. Medium was removed by inverting the plate and cells were washed once with 100 μl ice-cold PBS. Cells were lysed with 50 μl lysis buffer (100 mM NaOH, 0.1% Triton X-100) and plate was sealed with Tape Pads and vortexed. For the saponification reaction plates were incubated for 16-24 hours at 80° C. Seals were removed and 200 μl […] was added for neutralisation of the pH. 150 μl from each well was transferred into the corresponding wells of a 96-well CytoStarT plate (Perkin Elmer) and sealed with TopSeal A (Perkin Elmer). Plates were incubated for 4 h at 70° C. and for 1 h at room temperature in the dark. Signal of ^14C radioactivity was measured (TopCount NXT scintillation counter, 1 min/well). As a positive control 5 mM citrate or 40 μM C75 (Sigma, C5490) was applied.

INDY [2] = target: T1, INDY; test: 14C-citrate uptake in HepG2 cells endogenously expressing INDY (NaCT); type: cell-based; settings: endogenous INDY
Procedure, shortened: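 HepG2 cells, which express INDY endogenously, were preincubated with compound for 5 min at 37 °C in pH 6.5 Na+ citrate uptake buffer. 14C-citrate ([…]) was then added for 90 min at 37 °C. After washing and NaOH lysis, uptake was measured by scintillation counting, with 5 mM citrate as positive control.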

T1 sequence (Q86YT5 whole entry): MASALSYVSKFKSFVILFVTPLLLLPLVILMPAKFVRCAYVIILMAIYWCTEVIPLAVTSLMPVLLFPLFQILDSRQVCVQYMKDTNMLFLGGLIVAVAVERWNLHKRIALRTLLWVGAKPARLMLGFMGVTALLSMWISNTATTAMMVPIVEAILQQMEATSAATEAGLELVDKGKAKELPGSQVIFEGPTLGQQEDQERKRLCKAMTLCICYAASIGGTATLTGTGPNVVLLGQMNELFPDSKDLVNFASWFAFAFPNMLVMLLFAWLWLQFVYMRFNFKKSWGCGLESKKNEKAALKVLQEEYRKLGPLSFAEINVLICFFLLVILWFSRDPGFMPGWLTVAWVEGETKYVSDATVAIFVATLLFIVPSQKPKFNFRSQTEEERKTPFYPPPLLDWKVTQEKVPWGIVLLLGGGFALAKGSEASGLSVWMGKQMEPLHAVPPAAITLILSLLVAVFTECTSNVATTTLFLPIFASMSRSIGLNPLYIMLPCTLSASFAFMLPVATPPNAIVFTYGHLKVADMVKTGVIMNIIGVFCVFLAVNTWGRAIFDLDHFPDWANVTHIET

O=C(NCc1ccccc1F)C1CCN(S(=O)(=O)c2cc(Cl)cc(Cl)c2)CC1 [Example 44, 1-(3,5-dichlorobenzenesulfonyl)-N-[(2-fluorophenyl)methyl]piperidine-4-carboxamide]
IC50 (INDY [1]): 30 nM | IC50 (INDY [2]): 100 nM

O=C(NCc1ccccn1)C1CCN(S(=O)(=O)c2ccc(S(F)(F)(F)(F)F)cc2)CC1 [Example 86, 1-[4-(pentafluoro-lambda6-sulfanyl)benzenesulfonyl]-N-[(pyridin-2-yl)methyl]pipendine-4-carboxamide]
IC50 (INDY [1]): 400 nM | IC50 (INDY [2]): 400 nM

O=C(NCc1ccccc1F)C1CCN(S(=O)(=O)c2ccc(C(F)(F)F)cc2)CC1 [Example 25, N-[(2-fluorophenyl)methyl]-1-[4-(trifluoromethyl)benzenesulfonyl]piperidine-4-carboxamide]
IC50 (INDY [1]): 400 nM | IC50 (INDY [2]): 300 nM

O=C(NCc1ccccc1F)C1CCN(S(=O)(=O)/C=C/c2ccccc2)CC1 [Example 5]
IC50 (INDY [1]): 1300 nM | IC50 (INDY [2]): 2000 nM

COc1ccccc1CNC(=O)C1CN(S(=O)(=O)c2ccc(C(C)(C)C)cc2)C1 [Example 50, 1-(4-tert-butylbenzenesulfonyl)-N-[(2-methoxyphenyl)methyl]azetidine-3-carboxamide]
IC50 (INDY [1]): 6200 nM | IC50 (INDY [2]): 7000 nM

O=C(NCc1ccccn1)C1CCN(S(=O)(=O)c2ccc(C(F)(F)F)cc2)CC1 [Example 57, N-[(pyridin-2-yl)methyl]-1-[4-(trifluoromethyl)benzenesulfonyl]piperidine-4-carboxamide]
IC50 (INDY [1]): 2500 nM | IC50 (INDY [2]): 2500 nM

CC(C)(C)c1ccc(S(=O)(=O)N2CCC(C(=O)NCc3ccccc3F)CC2)cc1 [Example 12, 1-(4-tert-butylbenzenesulfonyl)-N-[(2-fluorophenyl)methyl]piperidine-4-carboxamide]
IC50 (INDY [1]): 600 nM | IC50 (INDY [2]): 1000 nM

O=C(NCc1ccccn1)C1CCN(S(=O)(=O)c2cc(Cl)cc(Cl)c2)CC1 [Example 55, 1-(3,5-dichlorobenzenesulfonyl)-N-[(pyridin-2-yl)methyl]piperidine-4-carboxamide]
IC50 (INDY [1]): 600 nM | IC50 (INDY [2]): 400 nM

O=C(NCc1ccccn1)C1CCN(S(=O)(=O)c2cc(Cl)cc(C3CC3)c2)CC1 [Example 101, 1-(3-chloro-5-cyclopropylbenzenesulfonyl)-N-[(pyridin-2-yl)methyl]piperidine-4-carboxamide]
IC50 (INDY [1]): 200 nM | IC50 (INDY [2]): 100 nM

O=C(NCc1ccccc1CO)C1CCN(S(=O)(=O)c2cc(Cl)cc(Cl)c2)CC1 [Example 87, 1-(3,5-dichlorobenzenesulfonyl)-N-{[2-(hydroxymethyl)phenyl]methyl}piperidine-4-carboxamide]
IC50 (INDY [1]): 600 nM | IC50 (INDY [2]): 200 nM
